# In patent publication US9359298B2, “Cajanine structure analogous compound, preparation method and use” (INSTITUTE OF MEDICINAL BIOTECHNOLOGY, CHINESE ACADEMY OF …, priority 2011, dated 2016):
# Where two headings read alike, the source gives them in different places.
# Columns and labels:
# Assay type in all cases: cell-based
# PC12 cells [1] = assay: Neuroprotective activity assay, rotenone injury to PC12 cells (MTT); settings: for viability at 10 µM: Rattus norvegicus, PC-12, 48 h, read-out: rotenone (surviving PC12 cells, MTT 570 nm); for protective effect on rotenone injury to PC12 cells: statement in words
# Description: (§1) Discard the original culture media from confluent monolayers of PC12 cells (simulated neuronal cells), add DMEM complete medium with 5% FBS, 5% horse serum gently beat upon the cells with a pipette to completely disperse them, inoculate 100 μl cell suspension at a density of […] per well to 96 hole plates treated with poly-lysine (0.1 mg/ml) in advance, culture for 24h. Divide the experimenting cells into control group, model group and dosing groups. Add complete medium to the control group. Model groups includes rotenone group and serum-deprived group, add rotenone to the corresponding modules with a final concentration of 4 μM rotenone to take effect on the cells for 48 h, add serum-deprived groups with serum-free DMEM medium to take effect on the cells for 48 h. Dosing groups also includes two groups, one using rotenone module as model, another using serum-deprived module as model, and both add in 10 μM test compounds during modeling. 48h later, add 10 μl 5 mg/ml MTT, subsequently discard the supernatant 4h later and add in 150 μl DMSO, measure 570 nm absorbance to represent the numbers of surviving cells.
# Coxsackie virus B6 = assay: Coxsackie virus activity assay (CPE in Vero cells); settings: Vero
# HCV = assay: Anti-hepatitis C virus (HCV) activity assay (HCV RNA in Huh7.5 cells); settings: for EC50: Hepatitis C virus, Huh7.5, 72 h, read-out: HCV EC50; for anti-HCV viral activity: statement in words
# Description: Inoculate Huh7.5 cells into 96-well plates to a density of 3×10^4 cells/cm^2, culture for 24h, infect the cells with 45 IU/cell HCV supernatant, meanwhile, add drug solutions or solvent control for treatment.
# PC12 cells [2] = assay: Neuroprotective activity assay, serum-deprived injury to PC12 cells (MTT); settings: for viability at 10 µM: Rattus norvegicus, PC-12, 48 h, read-out: serum-deprived (surviving PC12 cells, MTT 570 nm); for protective effect on serum-deprived injury to PC12 cells: statement in words
# Description: as §1
# [3] = test system: Influenza A virus (hanfang359/95); assay: Determination of anti-influenza virus activity (CPE in MDCK cells); settings: for IC50: Influenza A virus, MDCK, 36 h; for anti-influenza virus activities compared with the lead compound cajanine: statement in words
# HIV-1 III B virus = assay: Anti-HIV activity assay (P24 antigen in MT-4 cells); settings: for IC50: Human immunodeficiency virus 1, MT4, 96 h, read-out: HIV IC50; for anti-HIV viral activity: statement in words
# [4] = 10 μM test compound, 4 μM rotenone, 48 h, Control 100.0 ± 8.9, Model 73.2 ± 7.8
# [5] = Huh7.5 cells, 72 h, HCV RNA by RT-PCR, Reed-Muench
# [6] = 10 μM test compound, 48 h, Control 100.0 ± 9.2, Model 69.3 ± 4.1
# [7] = MT-4 cells, HIV-1 III B 100TCID50, 96 h, P24 antigen
# [8] = read-out: COX-B6 IC50, Vero cells, about 100TCID50, CPE, Reed-Muench
SMILES,viability at 10 µM (PC12 cells [1]; [4]) [%],protective effect on rotenone injury to PC12 cells (PC12 cells [1]),IC50 (Coxsackie virus B6; read-out: COX-B6 IC50) [µg/mL],EC50 (HCV; [5]) [µg/mL],viability at 10 µM (PC12 cells [2]; [6]) [%],protective effect on serum-deprived injury to PC12 cells (PC12 cells [2]),IC50 [3] [µg/mL],IC50 (HIV-1 III B virus; [7]) [µg/mL],IC50 (Coxsackie virus B6; [8]) [µg/mL],anti-HCV viral activity (HCV),anti-HIV viral activity (HIV-1 III B virus),anti-influenza virus activities compared with the lead compound cajanine [3],viability at 10 µM (PC12 cells [1]) [%],EC50 (HCV) [µg/mL],viability at 10 µM (PC12 cells [2]) [%],IC50 (HIV-1 III B virus) [µg/mL]
"COc1cc(/C=C/c2ccc(OC)c(O)c2)cc(OC)c1 [Compound 21d, 1,3-dimethoxy-5-[(E)-3-hydroxy-4-methoxy-styryl]benzene]",89.8 ± 2.8,the strongest activities,7.98,3.37,88.7 ± 6.3,the strongest activities,5.42,0.63,,,,,,,,
COc1ccc(/C=C/c2cc(OC)c(CC=C(C)C)c(O)c2C(=O)O)cc1 [Compound 1c],77.2 ± 0.6,,,2.69,16.1 ± 0.7,,> 2.06,1.64,1.6,"stronger anti-HIV, HCV viral activities","stronger anti-HIV, HCV viral activities",,,,,
"C=CCc1c(O)cc(/C=C/c2ccccc2)cc1OC [10h′, 2-allyl-3-methoxy-5-[(E)-styryl]phenol]",86.7 ± 4.5,,,,87.6 ± 4.3,,0.09,,0.54,,,,,,,
"COc1cc(/C=C/c2ccccc2C)cc(O)c1CC=C(C)C [Compound 10e, 2-isopentenyl-3-methoxy-5-[(E)-2′-methylstyryl]phenol]",70.2 ± 8.1,,,1.9,65.3 ± 2.3,,1.92,1.33,2.35,,,significantly stronger than the lead compound cajanine,,,,
COc1cc(/C=C/c2ccccc2Cl)cc(O)c1CC=C(C)C [Compound 10b],,,6.38,,,,> 0.23,,,"stronger anti-HIV, HCV viral activities","stronger anti-HIV, HCV viral activities",,74.6 ± 6.3,0.59,74.8 ± 5.2,0.3
"COc1cc(CCc2ccccc2)cc(O)c1CC=C(C)C [Compound 10v, 2-isopentenyl-3-methoxy-5-phenethyl phenol]",87.1 ± 2.5,the strongest activities,,1.73,85.2 ± 4.1,the strongest activities,> 0.69,1.36,> 6.19,,,,,,,
COc1cc(/C=C/c2ccc(O)cc2)c(C(=O)O)c(O)c1CC=C(C)C [Compound 1q],78.9 ± 5.3,,,2.3,79.6 ± 2.8,,2.35,1.86,0.86,,,significantly stronger than the lead compound cajanine,,,,
"COc1cc(/C=C/c2ccc(F)cc2)c(C(=O)O)c(O)c1CC=C(C)C [Compound 1a, 2-hydroxy-3-isopentenyl-4-methoxy-6-[(E)-4-fluorostyryl]benzoic acid]",62.4 ± 3.8,,,1.04,16.7 ± 0.6,,> 0.69,1.01,> 0.69,"stronger anti-HIV, HCV viral activities","stronger anti-HIV, HCV viral activities",,,,,
"COc1cc(/C=C/C=C/c2ccccc2)cc(O)c1CC=C(C)C [Compound 10m, 2-isopentenyl-3-methoxy-5-[(1′E,3′E)-phenylbutadiene-1′,3′-yl]phenol]",85.3 ± 7.1,the strongest activities,,1.75,89.3 ± 6.4,the strongest activities,2.35,2.33,6.12,"stronger anti-HIV, HCV viral activities","stronger anti-HIV, HCV viral activities",significantly stronger than the lead compound cajanine,,,,
"C=CCc1c(OC)cc(/C=C/c2ccccc2)c(C(=O)OC)c1O [8a′, methyl 2-hydroxy-3-allyl-4-methoxy-6-[(E)-styryl]benzoate]",88 ± 6.9,,,,87.9 ± 2.5,,0.15,,1.64,,,,,,,
